Like-named read-outs stand apart in the source and are kept apart here.
Columns and labels:
[1] = system: BromoTag-Brd2; assay: Time course degradation assay (western blot, 0–36 h) in heterozygous BromoTag-Brd2 HEK293 cells; format: cell-based, human; details: 500 nM
Experimental: Heterozygous BromoTag-Brd2 HEK293 cells were plated at a density of 5 × 10^5 cells per well of a six-well healthy plate a day prior to initiating the time course assay. […] The time point range was between 0 and 36 h. Treatment was applied in a staggered fashion to enable all time points to be harvested at the same time.
(§1) All cells were harvested on ice with RIPA lysis and extraction buffer (Thermo Fisher Scientific, 89901) supplemented with protease inhibitor cocktail (Merck, 11697498001) and Benzonase Nuclease (Sigma, E1014) before being stored at −20 °C prior to use. Total protein quantity was determined using the BCA protein assay (#23225, Pierce, Rockford, Illinois). The protein concentration was determined using the BCA assay (Thermo Fisher Scientific, 23225). The samples were then prepared and loaded onto NuPAGE 4–12% bis–tris Midi gels (Thermo Fisher Scientific, WG1403A), followed by the transfer of proteins onto nitrocellulose membranes (EMD Millipore). The membranes were blocked for 1 h prior to incubation with the primary antibodies using 5% Milk TBST. […] All western blots were analyzed for band intensities using Image Lab from Bio-Rad (LI-COR, Biosciences). The data extracted from these blots were then plotted and analyzed using Prism (v. 8.2.0, GraphPad).

[2] = system: MV-4-11 cells; assay: CellTiter-Glo 2.0 cell viability assay, MV-4-11; format: cell-based, human; details: MV-4-11, up to 1–10 μM
Experimental: (§2) All cell lines were treated with compounds in duplicate (triplicate for DMSO controls) at a 1× concentration in 0.1% DMSO. The compounds were serially diluted to produce a 7-point, 10-fold titration. The cells were treated with 50:100 μL of compound for a final concentration of 10 μM:10 pM in 0.1% DMSO. At the point of spectrometric analysis, cells were treated with 100 μL of Promega CellTiter-Glo 2.0 Cell Viability Assay reagent. The plates were subjected to an orbital shaker for 2 min to encourage lysis and left for a further 5 min to reach peak luminescence. Luminescence was then recorded on a BMG Labtech PHERAstar luminescence plate reader with recommended settings. Data extracted from this analysis was analyzed with GraphPad Prism (v. 8.2.0, GraphPad) and normalized to the DMSO vehicle control. The EC50 values were derived from these plots.

[3] = system: 22RV1 cells; assay: CellTiter-Glo 2.0 cell viability assay, 22RV1; format: cell-based, human; details: 22RV1, up to 1–10 μM
Experimental: as §2

[4] = system: HEK293 cells; assay: CellTiter-Glo 2.0 cell viability assay, HEK293; format: cell-based, human; details: HEK293, up to 1–10 μM
Experimental: as §2

[5] = system: BromoTag-Brd2; assay: Competition assay (inhibitor pretreatment, western blot); format: cell-based, human; details: 200 nM 46 for 3 h after 1 h pretreatment
Experimental: Heterozygous BromoTag-Brd2 HEK293 cells were plated in six-well plates at a density of 5 × 10^5 cells per well in 2 mL DMEM. […] After 3 h, the cells were harvested for subsequent processing via western blot. Each treatment was performed in tandem to produce two technical repeats per condition. The six-well plates were incubated for 4 h at 37 °C and 5% CO2 throughout the experiment.
as §1

[6] = Plasma stability; format: in vitro ADME; details: mouse plasma, 37 °C, over 1 h
Experimental: Plasma stability studies were outsourced and undertaken by Shanghai ChemPartner Co., Ltd. Buffer preparation: a solution of 0.05 M sodium phosphate and 0.07 M NaCl buffer at pH 7.4 was made by dissolving 14.505 g/L of Na2HPO4·12H2O, 1.483 g/L of NaH2PO4·2H2O, and 4.095 g/L of NaCl in deionized water, and the pH was adjusted with phosphoric acid. Plasma preparation: frozen mouse plasma was thawed by placing at 37 °C quickly. The thawed plasma was centrifuged at 3000 rpm for 8 min to remove clots, and the supernatant was pooled to be used as the plasma in the experiment. The plasma (pH 7.4–8.0) was stored on ice until used. […] Plasma and spiking solutions were prewarmed at 37 °C for 5 min, and then 10 μL of prewarmed spiking solution B was added into the wells designated for all the time points (5, 15, 30, 45, and 60 min). For 0 min, 400 μL of acetonitrile-containing internal standards (imipramine, glipizide) was added to the wells of a 0 min plate, and then 90 μL of plasma was added. For the time points (0, 5, 15, 30, 45, and 60 min), 90 μL of prewarmed plasma was added at the initial stage. At 5, 15, 30, 45, and 60 min, 400 μL of acetonitrile containing the internal standard (imipramine, glipizide) was added to the wells of the corresponding plates to stop the reaction. […] Data was analyzed with Microsoft Excel.

[7] = In vivo PK profiling; details: male, C57BL/6, mouse, plasma, mice
Experimental: PK profiling was outsourced and undertaken by Shanghai ChemPartner Co., Ltd. All animal experiments performed were conducted in compliance with the Institutional Animal Care and Use Committee (IACUC) and the Office of Laboratory Animal Welfare (OLAW) guidelines. Six- to eight-week-old C57BL/6 male mice purchased from Jihui Laboratory Animal Co. LTD were used in the study. […] The animals were restrained manually at the designated time points (0.083, 0.25, 0.5, 1, 2, 4, and 8 h); approximately, 110 μL of blood sample was collected via facial vein into K2EDTA tubes. Three mice per time point were used, resulting in a […]. The blood sample was put on ice and centrifuged at 2000g for 5 min to obtain the plasma sample within 15 min. The plasma samples were stored at approximately −70 °C until analysis. A 30 μL aliquot of plasma was added with 200 μL of internal standard (diclofenac, 40 ng/mL) in 1% formic acid in MeCN. The mixture was then vortexed for 1 min and then centrifuged for 10 min at 5800 rpm. The supernatant (100 μL) was transferred to a new plate. The solvent (0.5 μL) was injected to LC–MS/MS. LC–MS/MS instrument used: SCIEX LC–MS/MS-45 (Triple Quad 6500+). Data was analyzed by WinNonLin and Microsoft Excel.

## CC[C@@H](C(=O)OCCOCCOCCOCC(=O)N[C@H](C(=O)N1C[C@H](O)C[C@H]1C(=O)NCc1ccc(-c2scnc2C)cc1)C(C)(C)C)[C@@H]1N=C(c2ccc(Cl)cc2)c2c(sc(C)c2C)-n2c(C)nnc21 [AGB1 (46), (S)-13-((2S,4R)-4-Hydroxy-2-((4-(4-methylthiazol-5-yl)benzyl)carbamoyl)pyrrolidine-1-carbonyl)-14,14-dimethyl-11-oxo-3,6,9-trioxa-12-azapentadecyl (R)-2-((S)-4-(4-chlorophenyl)-2,3,9-trimethyl-6H-thieno[3,2-f][1,2,4]triazolo[4,3-a][1,4]diazepin-6-yl)butanoate]
[1]
  time to completely degrade BromoTag-Brd2: ≤ 6 h
[2]
  cytotoxicity: lack of cytotoxicity
[3]
  cytotoxicity: lack of cytotoxicity
[4]
  cytotoxicity: lack of cytotoxicity
[5]; 3 μM MLN4924, 10 μM VH298
  on-target degradation activity upon pretreatment with MLN4924 or VH298: completely abrogated
[5]; 50 μM MG132
  on-target degradation activity upon pretreatment with MG132: blocked
[6]
  plasma stability: levels remaining: no significant changes
[7]; IV (5 mg/kg)
  AUC(0-t) at 8 h: 1.71 µM·h
  MRT inf: 23.4 min
  clearance at 8 h: 47.2 mL/min/kg
  half-life at 8 h: 89.4 min
[7]; IV (5 mg/kg), read-out: AUCinf
  AUC(0-inf) at 8 h: 1.72 µM·h
[7]; IV (5 mg/kg), read-out: Vss
  Vd at 8 h: 1.1 L/kg
[7]; SC (5 mg/kg)
  AUC(0-t) at 8 h: 2.33 µM·h
  Cmax at 8 h: 700 nM
  Tmax at 8 h: 30 min
  half-life at 8 h: 99 min
[7]; SC (5 mg/kg), read-out: AUCinf (μ; M·h)
  AUC(0-inf) at 8 h: 2.4 µM·h

From PMC8558867, “Development of BromoTag: A “Bump-and-Hole”–PROTAC System to Induce Potent, Rapid, and Selective Degradation of Tagged Target Proteins” (Journal of Medicinal Chemistry, 2021)
